Experimental data reported in patent US9499550B2 (BRISTOL-MYERS SQUIBB COMPANY, priority 2012, dated 2016).
Read-outs that look alike come from different tables or passages of the source.

Tests used:
[1] = tested on: HCV genotype 1a (H77 strain) replicon in HUH-7 cells; assay: HCV replicon luciferase reporter assay, genotype 1a; type: cell-based; settings: Hepatitis C virus, Huh-7, 72 h, 3 days incubation, read-out: LE_1a (EC50, range)
Outline: (§1)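 Replicon inhibition for both genotypes was measured as Renilla luciferase signal (EnduRen, 7.5 μM final, 2 h) after 3-day, 37° C exposure of replicon-bearing HUH-7 cells in 4% FCS DMEM, 0.5% DMSO. The 1b construct carries S1179I; the 1a H77 construct carries P1496L and S2204I. Twenty-point, 3-fold dilutions were fitted four-parametrically for EC50, and CC50 was taken from multiplexed Cell Titer-Blue.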

[2] = tested on: HCV genotype 1b (Con1) replicon in HUH-7 cells; assay: HCV replicon luciferase reporter assay, genotype 1b; type: cell-based; settings: Hepatitis C virus, Huh-7, 72 h, 3 days incubation, read-out: LE_1b (EC50, range)
Outline: as §1

[3] = HCV genotype 1a replicon luciferase
[4] = HCV genotype 1b replicon luciferase
[5] = HCV genotype 1a replicon luciferase assay, range class
[6] = HCV genotype 1b replicon luciferase assay, range class

Row | Compound | EC50 [1, 3] | EC50 [2, 4] | EC50 [1, 5] | EC50 [2, 6]
1 | [2H]C([2H])([2H])C(C)(OC(=O)N[C@@H]1C(=O)N2C[C@H](Oc3nccc4cc(OC(C)C)ccc34)C[C@H]2C(=O)N[C@]2(C(=O)NS(=O)(=O)C3CC3)C[C@H]2/C=C\CC[C@H](C)C[C@H]1C)C([2H])([2H])[2H] [Compound 5152, 1,1,1,3,3,3-hexadeutero-2-methylpropan-2-yl((2R,6S,7R,9S,13aS,14aR,16aS,Z)-14a-((cyclopropylsulfonyl)carbamoyl)-2-((6-isopropoxyisoquinolin-1-yl)oxy)-7,9-dimethyl-5,16-dioxo-1,2,3,5,6,7,8,9,10,11,13a,14,14a,15,16,16a-hexadecahydrocyclopropa[e]pyrrolo[1,2-a][1,4]diazacyclopentadecin-6-yl)carbamate] | 4.82 to 103 nM | 4.82 to 103 nM | – | –
2 | COc1ccc2c(O[C@@H]3C[C@H]4C(=O)N[C@]5(C(=O)NS(=O)(=O)C6(C)CC6)C[C@H]5/C=C\CC[C@H](C)C[C@@H](C)[C@H](NC(=O)OC(C)(C)C)C(=O)N4C3)nc(-c3ccc(OC(C)C)nc3)cc2c1 [Compound 5222, tert-butyl ((2R,6S,7R,9S,13aS,14aR,16aS,Z)-2-((3-(6-isopropoxypyridin-3-yl)-6-methoxyisoquinolin-1-yl)oxy)-7,9-dimethyl-14a-(((1-methylcyclopropyl)sulfonyl)carbamoyl)-5,16-dioxo-1,2,3,5,6,7,8,9,10,11,13a,14,14a,15,16,16a-hexadecahydrocyclopropa[e]pyrrolo[1,2-a][1,4]diazacyclopentadecin-6-yl)carbamate] | 4.82 to 103 nM | < 5.46 nM | – | –
3 | COc1cc2ccnc(O[C@@H]3C[C@H]4C(=O)N[C@]5(C(=O)NS(=O)(=O)C6(F)CC6)C[C@H]5/C=C\CC[C@@H](C)C[C@@H](C)[C@H](NC(=O)OCC(C)(C)C)C(=O)N4C3)c2cc1Cl [Compound 4042, neopentyl (2R,6S,7R,9R,13aS,14aR,16aS,Z)-2-(7-chloro-6-methoxyisoquinolin-1-yloxy)-14a-(1-fluorocyclopropylsulfonylcarbamoyl)-7,9-dimethyl-5,16-dioxo-1,2,3,5,6,7,8,9,10,11,13a,14,14a,15,16,16a-hexadecahydrocyclopropa[e]pyrrolo[1,2-a][1,4]diazacyclopentadecin-6-ylcarbamate] | < 5.46 nM | < 5.46 nM | – | –
4 | COc1ccc2c(O[C@@H]3C[C@H]4C(=O)N[C@]5(C(=O)NS(=O)(=O)C6CC6)C[C@H]5/C=C\CC[C@@H](C)C[C@@H](C)[C@H](NC(=O)OC(C)(C)C)C(=O)N4C3)nc(-c3ccc(OC(C)C)nc3)cc2c1 [Compound 5213, tert-butyl ((2R,6S,7R,9R,13aS,14aR,16aS,Z)-14a-((cyclopropylsulfonyl)carbamoyl)-2-((3-(6-isopropoxypyridin-3-yl)-6-methoxyisoquinolin-1-yl)oxy)-7,9-dimethyl-5,16-dioxo-1,2,3,5,6,7,8,9,10,11,13a,14,14a,15,16,16a-hexadecahydrocyclopropa[e]pyrrolo[1,2-a][1,4]diazacyclopentadecin-6-yl)carbamate] | < 5.46 nM | < 5.46 nM | – | –
5 | [2H]C([2H])([2H])C(OC(=O)N[C@@H]1C(=O)N2C[C@H](Oc3nccc4cc(OC(C)C)ccc34)C[C@H]2C(=O)N[C@]2(C(=O)NS(=O)(=O)C3(C)CC3)C[C@H]2/C=C\CC[C@H](C)C[C@H]1C)(C([2H])([2H])[2H])C([2H])([2H])[2H] [Compound 5166, 1,1,1,3,3,3-hexadeutero-2-(trideuteromethyl)propan-2-yl((2R,6S,7R,9S,13aS,14aR,16aS,Z)-2-((6-isopropoxyisoquinolin-1-yl)oxy)-7,9-dimethyl-14a-(((1-methylcyclopropyl)sulfonyl)carbamoyl)-5,16-dioxo-1,2,3,5,6,7,8,9,10,11,13a,14,14a,15,16,16a-hexadecahydrocyclopropa[e]pyrrolo[1,2-a][1,4]diazacyclopentadecin-6-yl)carbamate] | 4.82 to 103 nM | 4.82 to 103 nM | – | –
6 | COc1ccc2c(O[C@@H]3C[C@H]4C(=O)N[C@]5(C(=O)NS(=O)(=O)C6CC6)C[C@H]5/C=C\CC[C@@H](C)C[C@@H](C)[C@H](NC(=O)OC(C)(C)C)C(=O)N4C3)nc(N3CCOCC3)cc2c1 [Compound 3107, tert-butyl ((2R,6S,7R,9R,13aS,14aR,16aS,Z)-14a-((cyclopropylsulfonyl)carbamoyl)-2-((6-methoxy-3-morpholinoisoquinolin-1-yl)oxy)-7,9-dimethyl-5,16-dioxo-1,2,3,5,6,7,8,9,10,11,13a,14,14a,15,16,16a-hexadecahydrocyclopropa[e]pyrrolo[1,2-a][1,4]diazacyclopentadecin-6-yl)carbamate] | – | – | < 5.46 nM | < 5.46 nM
7 | C[C@@H]1CC/C=C\[C@@H]2C[C@@]2(C(=O)NS(=O)(=O)C2(CF)CC2)NC(=O)[C@@H]2C[C@@H](Oc3nccc4c5c(ccc34)CCCO5)CN2C(=O)[C@@H](NC(=O)OC(C)(C)C(F)(F)F)[C@H](C)C1 [Compound 6066, 1,1,1-trifluoro-2-methylpropan-2-yl((2R,6S,7R,9R,13aS,14aR,16aS,Z)-2-((3,4-dihydro-2H-pyrano[2,3-f]isoquinolin-7-yl)oxy)-14a-(((1-(fluoromethyl)cyclopropyl)sulfonyl)carbamoyl)-7,9-dimethyl-5,16-dioxo-1,2,3,5,6,7,8,9,10,11,13a,14,14a,15,16,16a-hexadecahydrocyclopropa[e]pyrrolo[1,2-a][1,4]diazacyclopentadecin-6-yl)carbamate] | 1.01 to 5 nM | 1.01 to 5 nM | – | –
8 | COc1ccc2c(O[C@@H]3C[C@H]4C(=O)N[C@]5(C(=O)NS(=O)(=O)C6(C)CC6)C[C@H]5/C=C\CC[C@H](C)C[C@@H](C)[C@H](NC(=O)OC(C)(C)C(F)(F)F)C(=O)N4C3)nc(N3CCOCC3)cc2c1 [Compound 3094, 1,1,1-trifluoro-2-methylpropan-2-yl((2R,6S,7R,9S,13aS,14aR,16aS,Z)-2-((6-methoxy-3-morpholinoisoquinolin-1-yl)oxy)-7,9-dimethyl-14a-(((1-methylcyclopropyl)sulfonyl)carbamoyl)-5,16-dioxo-1,2,3,5,6,7,8,9,10,11,13a,14,14a,15,16,16a-hexadecahydrocyclopropa[e]pyrrolo[1,2-a][1,4]diazacyclopentadecin-6-yl)carbamate] | – | – | 4.82 to 103 nM | < 5.46 nM
9 | COc1cc2ccccc2c(O[C@@H]2C[C@H]3C(=O)N[C@]4(C(=O)NS(=O)(=O)C5(CF)CC5)C[C@H]4/C=C\CC[C@@H](C)C[C@@H](C)[C@H](NC(=O)OC(C)(C)C(C)(F)F)C(=O)N3C2)n1 [Compound 6038, 3,3-difluoro-2-methylbutan-2-yl((2R,6S,7R,9R,13aS,14aR,16aS,Z)-14a-(((1-(fluoromethyl)cyclopropyl)sulfonyl)carbamoyl)-2-((3-methoxyisoquinolin-1-yl)oxy)-7,9-dimethyl-5,16-dioxo-1,2,3,5,6,7,8,9,10,11,13a,14,14a,15,16,16a-hexadecahydrocyclopropa[e]pyrrolo[1,2-a][1,4]diazacyclopentadecin-6-yl)carbamate] | < 5.46 nM | < 5.46 nM | – | –
10 | COc1cnc(O[C@@H]2C[C@H]3C(=O)N[C@]4(C(=O)NS(=O)(=O)C5(CF)CC5)C[C@H]4/C=C\CC[C@H](C)C[C@@H](C)[C@H](NC(=O)OC4(C(F)(F)F)CCOCC4)C(=O)N3C2)c2ccccc12 [Compound 1047, 4-(trifluoromethyl)tetrahydro-2H-pyran-4-yl((2R,6S,7R,9S,13aS,14aR,16aS,Z)-14a-(((1-(fluoromethyl)cyclopropyl)sulfonyl)carbamoyl)-2-((4-methoxyisoquinolin-1-yl)oxy)-7,9-dimethyl-5,16-dioxo-1,2,3,5,6,7,8,9,10,11,13a,14,14a,15,16,16a-hexadecahydrocyclopropa[e]pyrrolo[1,2-a][1,4]diazacyclopentadecin-6-yl)carbamate] | – | – | 4.82 to 103 nM | 4.82 to 103 nM
11 | CCn1nc(O[C@@H]2C[C@H]3C(=O)N[C@]4(C(=O)NS(=O)(=O)C5(C)CC5)C[C@H]4/C=C\CC[C@H](C)C[C@@H](C)[C@H](NC(=O)NC(C)(C)C)C(=O)N3C2)c2ccccc2c1=O [Compound 5058, (2R,6S,7R,9S,13aS,14aR,16aS,Z)-6-(3-(tert-butyl)ureido)-2-((3-ethyl-4-oxo-3,4-dihydrophthalazin-1-yl)oxy)-7,9-dimethyl-N-((1-methylcyclopropyl)sulfonyl)-5,16-dioxo-1,2,3,5,6,7,8,9,10,11,13a,14,14a,15,16,16a-hexadecahydrocyclopropa[e]pyrrolo[1,2-a][1,4]diazacyclopentadecine-14a-carboxamide] | > 87.4 nM | > 87.4 nM | – | –
12 | COc1ccc2c(O[C@@H]3C[C@H]4C(=O)N[C@]5(C(=O)NS(=O)(=O)C6(F)CC6)C[C@H]5/C=C\CC[C@@H](C)C[C@@H](C)[C@H](NC(=O)OC5C[C@@H]6C[C@@H]6C5)C(=O)N4C3)nccc2c1 (some centres unmarked) [Compound 4038] | < 5.46 nM | < 5.46 nM | – | –
13 | COc1ccc2c(O[C@@H]3C[C@H]4C(=O)N[C@]5(C(=O)NS(=O)(=O)C6CC6)C[C@H]5/C=C\CC[C@H](C)C[C@@H](C)[C@H](NC(=O)OC(C)(C)C(F)(F)F)C(=O)N4C3)nc(N3CCOCC3)cc2c1 [Compound 3098, 1,1,1-trifluoro-2-methylpropan-2-yl((2R,6S,7R,9S,13aS,14aR,16aS,Z)-14a-((cyclopropylsulfonyl)carbamoyl)-2-((6-methoxy-3-morpholinoisoquinolin-1-yl)oxy)-7,9-dimethyl-5,16-dioxo-1,2,3,5,6,7,8,9,10,11,13a,14,14a,15,16,16a-hexadecahydrocyclopropa[e]pyrrolo[1,2-a][1,4]diazacyclopentadecin-6-yl)carbamate] | – | – | < 5.46 nM | < 5.46 nM
